Results published in the NIST ThermoML archive (doi:10.1021/je0601457).

Experiment: xn = mol fraction of the nth substance listed

Cc1nccnc1C [2,3-dimethylpyrazine] + O=C=O
Fluid (supercritical or subcritical phases), Linear displacement technique
Settings	mass density [kg/m3]
347.85 K, 13450 kPa, x1 = 0.184	837
347.85 K, 15690 kPa, x1 = 0.184	853
348.35 K, 9900 kPa, x1 = 0.433	906
348.35 K, 15140 kPa, x1 = 0.433	917
348.35 K, 23070 kPa, x1 = 0.433	931
350.75 K, 14660 kPa, x1 = 0.108	747
350.75 K, 15690 kPa, x1 = 0.108	766
350.75 K, 17410 kPa, x1 = 0.108	790
352.25 K, 14550 kPa, x1 = 0.057	618
352.25 K, 16340 kPa, x1 = 0.057	678
352.25 K, 18760 kPa, x1 = 0.057	731
354.15 K, 16900 kPa, x1 = 0.157	847
354.15 K, 19280 kPa, x1 = 0.157	865
354.15 K, 25210 kPa, x1 = 0.157	904
355.25 K, 14550 kPa, x1 = 0.049	608
355.25 K, 15410 kPa, x1 = 0.049	652
355.25 K, 17280 kPa, x1 = 0.049	702
357.15 K, 13760 kPa, x1 = 0.433	897
357.15 K, 17310 kPa, x1 = 0.433	905
357.15 K, 21970 kPa, x1 = 0.433	914
358.65 K, 12930 kPa, x1 = 0.291	848
358.65 K, 15410 kPa, x1 = 0.291	852
358.65 K, 20590 kPa, x1 = 0.291	855
360.55 K, 6970 kPa, x1 = 0.736	846
360.55 K, 11100 kPa, x1 = 0.736	850
360.55 K, 17970 kPa, x1 = 0.736	853
362.95 K, 16930 kPa, x1 = 0.086	561
362.95 K, 17410 kPa, x1 = 0.086	574
362.95 K, 19410 kPa, x1 = 0.086	604
365.05 K, 16480 kPa, x1 = 0.057	573
365.05 K, 18310 kPa, x1 = 0.057	636
365.05 K, 20170 kPa, x1 = 0.057	679
365.05 K, 23210 kPa, x1 = 0.057	725
365.55 K, 19340 kPa, x1 = 0.184	818
365.55 K, 24520 kPa, x1 = 0.184	848
365.55 K, 45000 kPa, x1 = 0.184	900
368.45 K, 17140 kPa, x1 = 0.108	690
368.45 K, 19480 kPa, x1 = 0.108	731
368.45 K, 25100 kPa, x1 = 0.108	791
368.45 K, 34900 kPa, x1 = 0.108	848
371.85 K, 15900 kPa, x1 = 0.027	402
371.85 K, 17140 kPa, x1 = 0.027	432
373.25 K, 16720 kPa, x1 = 0.049	558
373.25 K, 17900 kPa, x1 = 0.049	605
373.25 K, 20100 kPa, x1 = 0.049	667
373.55 K, 9210 kPa, x1 = 0.565	867
373.55 K, 12380 kPa, x1 = 0.565	873
373.55 K, 18520 kPa, x1 = 0.565	883
374.25 K, 17410 kPa, x1 = 0.086	507
374.25 K, 18100 kPa, x1 = 0.086	521
374.25 K, 18900 kPa, x1 = 0.086	540
375.05 K, 18100 kPa, x1 = 0.033	466
375.05 K, 19410 kPa, x1 = 0.033	499
375.05 K, 20690 kPa, x1 = 0.033	526
375.85 K, 20590 kPa, x1 = 0.157	805
375.85 K, 23340 kPa, x1 = 0.157	829
375.85 K, 26520 kPa, x1 = 0.157	856
380.65 K, 12760 kPa, x1 = 0.433	852
380.65 K, 16100 kPa, x1 = 0.433	861
380.65 K, 21660 kPa, x1 = 0.433	876
381.45 K, 15210 kPa, x1 = 0.291	831
381.45 K, 15690 kPa, x1 = 0.291	830
381.45 K, 21340 kPa, x1 = 0.291	841

Liquid, linear displacement
Settings	mass density [kg/m3]
347.85 K, x1 = 0.184	826
348.35 K, x1 = 0.433	902
350.75 K, x1 = 0.108	725
354.15 K, x1 = 0.157	814
357.15 K, x1 = 0.433	886
358.65 K, x1 = 0.291	848
360.55 K, x1 = 0.736	845
362.95 K, x1 = 0.086	530
365.55 K, x1 = 0.184	774
368.45 K, x1 = 0.108	663
373.55 K, x1 = 0.565	865
374.25 K, x1 = 0.086	490
375.85 K, x1 = 0.157	764
380.65 K, x1 = 0.433	848
381.45 K, x1 = 0.291	829
